From patent US20260374766A1, “METHODS FOR TREATING CANCER” (Antares Therapeutics, Inc., priority 2022, published 2026)
pIC50, pKd: −log10 of the molar value. Like-named read-outs stand apart in the source and are kept apart here.

Tests used:
[1] = target: T1, p53 Y220C mutant protein (amino acid residues 94-293) (Homo sapiens, UniProt P04637, Y220C); test: Surface Plasmon Resonance (SPR) assay, Kd_kinetic; type: binding; conditions: SPR, p53 Y220C, read-out: SPR P53 Y220C KD kinetic
T1 construct: p53 Y220C mutant protein (amino acid residues 94-293)
Method in brief: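 Kinetic dissociation constants derived by 1:1 model fit of SPR data acquired at 16 or 20 °C, pH 7.5 Tris/NaCl running buffer with 1% DMSO.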

[2] = target: T1, p53 Y220C mutant protein (amino acid residues 94-293); test: Thermal Shift Assay (TSA), dTM; type: binding; conditions: for ΔTm at 100 µM: 100 uM compound, read-out: TSA P53 Y220C dTM (100 uM); for ΔTm at 10 µM: 10 uM compound
Experimental: Thermal Shift Assay (TSA) Protocol
5 μM recombinant p53 Y220C mutant protein (amino acid residues 94-293) was incubated with 10 μM or 100 μM compound for 3 hours at 20 °C in buffer containing 20 mM HEPES, pH7.4, 100 mM NaCl, 0.01% Pluronic F-127, and 1% DMSO in the presence of 400-fold diluted Sypro Orange (ThermoFisher Scientific catalog number 4461146), on a 384-well PCR plate (Applied Biosystems catalog number 4483285). The volume was 5 μL/well. The sealed plate was then loaded onto a QuantStudio 7 Flex instrument for melting temperature (TM) measurement. The temperature was increased from 30 °C to […], at a rate of 0.03 °C/second. Data were fit into a Boltzmann two-state model to determine the TM.

p53 Y220C = p53 Y220C (Homo sapiens, UniProt P04637, Y220C); test: Luciferase Reporter Assay (Luc), p53 response element, NClH1299 cells with inducible p53 Y220C; type: cell-based; conditions: luciferase reporter, NClH1299 inducible p53 Y220C, 6 hour; for AC50: read-out: Luc P53 Y220C AC50
Method in brief: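 Doxycycline (0.5 ug/mL, 24 h) induces the mutant before a 6-hour compound treatment. Reporter activity is then quantified by One-Glo luminescence.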

NUGC3 p53 Y220C = test: Cell Proliferation Assay (CellTiter-Glo, CTG), NUGC3 p53 Y220C; type: cell-based; conditions: Homo sapiens, NUGC-3, 120 h, CellTiter-Glo, 5 days
Method in brief: (§1)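 Tet-One inducible p53 Y220C or R273H constructs were stably introduced into NCI-H1299 by lentiviral transduction; NUGC3 was used as is. Cells (250-500 per well) were exposed to compound for 5 days, then CellTiter-Glo was added for 10 min at room temperature and IC50 was calculated from luminescence.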

H1299 p53 Y220C = test: Cell Proliferation Assay (CellTiter-Glo, CTG), H1299 p53 Y220C (NClH1299-inducible p53 Y220C); type: cell-based; conditions: Homo sapiens, NCI-H1299, 120 h, CellTiter-Glo, 5 days
Method in brief: as §1

H1299 p53 R273H = test: Cell Proliferation Assay (CellTiter-Glo, CTG), H1299 p53 R273H (NClH1299-inducible p53 R273H); type: cell-based; conditions: Homo sapiens, NCI-H1299, 120 h, CellTiter-Glo, 5 days
Method in brief: as §1

[3] = 10 uM tool compound as positive control
[4] = p53 Y220C, read-out: TSA P53 Y220C dTM
[5] = NClH1299-inducible p53 Y220C cells
[6] = NClH1299-inducible p53 R273H cells
[7] = thermal shift, read-out: TSA P53 Y220C dTM (10 uM)

Compound	pKd ([1]; kinetic KD)	ΔTm at 100 µM ([2]; thermal shift)	Emax (p53 Y220C; [3])	AC50 (p53 Y220C)	pIC50 (NUGC3 p53 Y220C; NUGC3 p53 Y220C)	pIC50 (H1299 p53 Y220C; H1299 p53 Y220C)	pIC50 (H1299 p53 R273H; H1299 p53 R273H)	pKd [1]	ΔTm at 10 µM [2, 4]	AC50 (p53 Y220C; AC50)	Emax (p53 Y220C; Emax)	pIC50 (NUGC3 p53 Y220C; NUGC3 cells)	pIC50 (H1299 p53 Y220C; [5])	pIC50 (H1299 p53 R273H; [6])	ΔTm at 10 µM [2, 7]
CNC(=O)c1ccc(NCC#Cc2nc3c(N[C@H]4CCN(C)CC4(F)F)cccn3c2CC(F)(F)F)c(OC)c1 (single isomer, unassigned) [Example 38]	< 6.00	5 to 10 °C	< 70%	> 3000 nM	< 5.52	< 5.52	≤ 5.00								
CNC(=O)c1ccc(OC[C@H](C)O)c(NCC#Cc2cc3c(N[C@@H]4CCN(C)C[C@@H]4F)nccn3c2SC(F)(F)F)c1 (single isomer, unassigned) [Example 355]								> 8.00	≥ 10 °C	< 750 nM	> 90%	> 6.12	> 6.12	≤ 5.00	
CNC(=O)c1ccc(OC[C@@H](C)O)c(NCC#Cc2cc3c(N[C@@H]4CCN(C)C[C@@H]4F)nccn3c2SC(F)(F)F)c1 (single isomer, unassigned) [Example 356]								> 8.00	≥ 10 °C	< 750 nM	> 90%	> 6.12	> 6.12	≤ 5.00	
CNC(=O)c1ccc(NCC#Cc2nc3c(N[C@H]4CCc5ncnn5C4)cccn3c2SC(F)(F)F)c(OC)c1 (stereo in doubt) [Example 189]	7.00 to 8.00	5 to 10 °C	70 to 80%	> 3000 nM	< 5.52	< 5.52	≤ 5.00								5 to 10 °C
CNC(=O)c1ccc(NCC#Cc2nc3c(N[C@@H]4CCc5ncnn5C4)cccn3c2SC(F)(F)F)c(OC)c1 (stereo in doubt) [Example 190]	> 8.00	≥ 10 °C	> 90%	< 750 nM	> 6.12	> 6.12	≤ 5.00								5 to 10 °C
COc1cc(S(C)(=O)=O)ccc1NCC#Cc1nc2c(N[C@@H]3CCN(C)C[C@@H]3F)cccn2c1CC(F)(F)F [Example 1, (3S,4R)-3-fluoro-N-(2-{3-[(4-methanesulfonyl-2-methoxyphenyl)amino]prop-1-yn-1-yl}-3-(2,2,2-trifluoroethyl)imidazo[1,2-a]pyridin-8-yl)-1-methylpiperidin-4-amine]	> 8.00	≥ 10 °C	70 to 80%	750 to 1500 nM	5.82 to 6.12	> 6.12	5.00 to 5.10								
COc1cc(S(C)(=O)=O)ccc1NCC#Cc1nc2c(NC3CCN(C)CC3)cccn2c1CC(F)(F)F [Example 2, N-(2-{3-[(4-methanesulfonyl-2-methoxyphenyl)amino]prop-1-yn-1-yl}-3-(2,2,2-trifluoroethyl)imidazo[1,2-a]pyridin-8-yl)-1-methylpiperidin-4-amine]	7.00 to 8.00	≥ 10 °C	< 70%	> 3000 nM	5.52 to 5.82	5.52 to 5.82	5.10 to 5.30								
COc1cc(S(C)(=O)=O)ccc1NCC#Cc1nc2c(NC3CCOCC3)cccn2c1CC(F)(F)F [Example 3, 2-{3-[(4-methanesulfonyl-2-methoxyphenyl)amino]prop-1-yn-1-yl}-N-(oxan-4-yl)-3-(2,2,2-trifluoroethyl)imidazo[1,2-a]pyridin-8-amine]	7.00 to 8.00	≥ 10 °C	70 to 80%	1500 to 3000 nM	< 5.52	5.52 to 5.82	≤ 5.00								
COc1cc(S(C)(=O)=O)ccc1NCC#Cc1nc2c(NC3CCS(=O)(=O)CC3)cccn2c1CC(F)(F)F [Example 4, 4-[(2-{3-[(4-methanesulfonyl-2-methoxyphenyl)amino]prop-1-yn-1-yl}-3-(2,2,2-trifluoroethyl)imidazo[1,2-a]pyridin-8-yl)amino]-1lambda6-thiane-1,1-dione]	7.00 to 8.00	5 to 10 °C	< 70%	> 3000 nM	5.52 to 5.82	< 5.52	≤ 5.00								
COc1cc(S(C)(=O)=O)ccc1NCC#Cc1nc2c(NC3CCN(CCS(C)(=O)=O)CC3)cccn2c1CC(F)(F)F [Example 5, N-(2-{3-[(4-methanesulfonyl-2-methoxyphenyl)amino]prop-1-yn-1-yl}-3-(2,2,2-trifluoroethyl)imidazo[1,2-a]pyridin-8-yl)-1-(2-methanesulfonylethyl) piperidin-4-amine]	7.00 to 8.00	5 to 10 °C	80 to 90%	> 3000 nM	5.52 to 5.82	< 5.52	≤ 5.00								5 to 10 °C
COc1cc(S(C)(=O)=O)ccc1NCC#Cc1nc2c(N[C@H]3CCN(C)C[C@H]3F)cccn2c1CC(F)(F)F [Example 6, (3R,4S)-3-fluoro-N-(2-{3-[(4-methanesulfonyl-2-methoxyphenyl)amino]prop-1-yn-1-yl}-3-(2,2,2-trifluoroethyl)imidazo[1,2-a]pyridin-8-yl)-1-methylpiperidin-4-amine]	7.00 to 8.00	≥ 10 °C	70 to 80%	1500 to 3000 nM	5.52 to 5.82	5.52 to 5.82	≤ 5.00								
COc1cc(S(C)(=O)=O)ccc1NCC#Cc1nc2c(NC3CCN(C4CC4)CC3)cccn2c1CC(F)(F)F [Example 7, 1-cyclopropyl-N-(2-{3-[(4-methanesulfonyl-2-methoxyphenyl)amino]prop-1-yn-1-yl}-3-(2,2,2-trifluoroethyl)imidazo[1,2-a]pyridin-8-yl)piperidin-4-amine]	7.00 to 8.00	5 to 10 °C	< 70%	> 3000 nM	5.52 to 5.82	5.52 to 5.82	5.10 to 5.30								
COc1cc(S(C)(=O)=O)ccc1NCC#Cc1nc2c(N[C@@H]3CCNC[C@@H]3F)cccn2c1CC(F)(F)F [Example 8, (3S,4R)-3-fluoro-N-(2-{3-[(4-methanesulfonyl-2-methoxyphenyl)amino]prop-1-yn-1-yl}-3-(2,2,2-trifluoroethyl)imidazo[1,2-a]pyridin-8-yl)piperidin-4-amine]	> 8.00	≥ 10 °C	70 to 80%	750 to 1500 nM	5.82 to 6.12	5.82 to 6.12	5.10 to 5.30								
